Results reported in patent US6416991B1, “Human cyclic nucleotide PDES” (Incyte Genomics, Inc., priority 1999, dated 2002).

Columns and labels:
PDEs (non-selective) = details: range observed for other PDEs; read-out: Selective for PDE type (IC50): non-selective; cited from earlier work
HSPDE10A1 [1] = target: T1, HSPDE10A1 (Homo sapiens, UniProt Q9HCR9); assay: Inhibition of HSPDE10A1 PDE activity, scintillation proximity assay with cGMP as substrate
PDE3 = details: read-out: Selective for PDE type (IC50): PDE3; cited from earlier work
PDE4 = details: read-out: Selective for PDE type (IC50): PDE4; cited from earlier work
HSPDE10A1 [2] = target: T1, HSPDE10A1; assay: HSPDE10A1 enzyme kinetics (Km, Vmax) with cAMP and cGMP as substrates; details: substrate 0.15-10 μM, Michaelis-Menten plot

T1 sequence (Q9HCR9 445-933): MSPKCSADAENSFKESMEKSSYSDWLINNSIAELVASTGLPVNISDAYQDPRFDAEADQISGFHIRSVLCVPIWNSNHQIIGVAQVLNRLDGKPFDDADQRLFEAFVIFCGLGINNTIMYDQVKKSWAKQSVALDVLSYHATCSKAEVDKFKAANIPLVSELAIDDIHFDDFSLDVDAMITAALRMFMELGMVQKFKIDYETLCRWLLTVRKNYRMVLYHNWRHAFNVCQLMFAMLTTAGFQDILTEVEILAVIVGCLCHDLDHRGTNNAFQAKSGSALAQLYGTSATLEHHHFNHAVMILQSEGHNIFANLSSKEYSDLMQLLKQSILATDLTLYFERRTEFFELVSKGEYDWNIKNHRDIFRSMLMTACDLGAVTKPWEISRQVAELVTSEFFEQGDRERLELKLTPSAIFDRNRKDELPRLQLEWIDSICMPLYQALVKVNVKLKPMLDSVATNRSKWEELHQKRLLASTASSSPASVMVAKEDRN

For `CC(C)Cn1c(=O)n(C)c(=O)c2[nH]cnc21` [IBMX, 3-isobutyl1-methylxanthine], the IC50 (PDEs (non-selective)) is given as 2 to 50 µM and the IC50 (HSPDE10A1 [1]) is given as 40 µM.

In the case of `Cc1[nH]c(=O)c(C#N)cc1-c1ccncc1` [Milrinone], the IC50 (PDE3) is given as 1 µM and the IC50 (HSPDE10A1 [1]) is given as over 200 µM.

In the case of `COc1ccc(C2CNC(=O)C2)cc1OC1CCCC1` (centres unmarked) [Rolipram], the IC50 (PDE4) is given as […] and the IC50 (HSPDE10A1 [1]) is given as 160 µM.

With `Nc1nc2c(ncn2[C@@H]2O[C@@H]3COP(=O)(O)O[C@H]3[C@H]2O)c(=O)[nH]1` [cGMP] the Km (HSPDE10A1 [2]; read-out: Km for HSPDE10A1) was 0.52 µM and the “Vmax (rate of hydrolysis by HSPDE10A1)” value (HSPDE10A1 [2]) was 0.21 μmole/min/ml enzyme.
